Experimental data taken from patent publication US11866416B2, “Streptococcus mutans glucosyl transferase inhibitors for dental caries therapy” (UAB Research Foundation, priority 2018, dated 2024).
≈ marks a conversion by molar mass, not a printed value. Where two headings read alike, the source gives them in different places. Marks after values point to notes of the source that are not given here. Each block holds one compound with its values, some of them ahead of it.

Assays:
S. mutans = assay: microbe, parasite or virus in culture; type: cell-based, Streptococcus mutans; conditions: for SI (selectivity index): Table 7, growth IC50 value divided by biofilm IC50 value; for Selectivity: growth versus biofilm
Description: Cell viability of S. mutans, S. gordonii, S. sanguinis, Aggregatibacter actinomycetemcomitans and Actinomyces. […] The number of colony-forming units (CFU) per milliliter of each sample treated with selected compounds at different concentrations was enumerated after incubation for 24 h at 37° C. and compared to the values obtained from the DMSO control group. Overnight broth cultures were transferred by 1:50 dilutions into fresh THB medium and were allowed to grow until mid-exponential phase (OD470 nm 0.6) before transfer to 96-well plates containing desired concentration of the compound. After 16 h incubation, bacterial growth was measured at OD470, and normalized to the DMSO control (100%).
Cell viability of S. mutans and commensal S. gordonii and S. sanguinis. Effects of lead small molecules on cell viability were examined. The number of colony-forming units (CFU) per milliliter for each compound at different concentrations was determined after incubation for 24 h at 37° C. and compared to the values obtained from the DMSO control group.
Cell viability of S. mutans and commensal S. gordonii and S. sanguinis. […] DMSO served as a control group and provided a relative comparison for the number of colony-forming units (CFU) per milliliter for each compound at different concentrations was determined after incubation for 24 h at 37° C. The final concentration of DMSO used in the assays was 1%.

S. mutans biofilm = S. mutans biofilm formation and inhibition assay (96-well plates, crystal violet); type: cell-based, Streptococcus mutans
Description: Biofilm assays using 96-well flat-bottom polystyrene microtiter plates were performed to evaluate S. mutans biofilm formation at various conditions as described (Liu et al. (2011) Antimicrobial Agents and Chemotherapy 55, 2679; Zhang et al. (2015) International Journal of Antimicrobial Agents 46, 174), the disclosures of which are incorporated herein by reference in their entirety). Each assay was replicated three times. Compounds that inhibited biofilm formation at minimum concentration (MBIC) were determined by serial dilutions.
S. mutans biofilm formation and inhibition assays. […] Each assay was replicated three times. Minimum biofilm inhibitory concentration (MBIC) of compounds was determined by serial dilutions.
S. mutans biofilm formation and inhibition assays. Biofilm assays using 96-well flat-bottom polystyrene microtiter plates were performed to evaluate S. mutans biofilm formation at various conditions as described. Each assay was replicated […]. Compounds that inhibited 50% biofilm formation were determined by serial dilutions.
S. mutans biofilm formation and inhibition assays. A well-established protocol to study S. mutans biofilm formation in 96-well flat-bottom polystyrene microtiter plates was used, in triplicate (Mattos-Graner, R. O.; Napimoga, M. H.; Fukushima, K.; Duncan, M. J.; Smith, D. J., Comparative analysis of Gtf isozyme production and diversity in isolates of Streptococcus mutans with different biofilm growth phenotypes. Journal of clinical microbiology 2004, 42 (10), 4586-4592). The stock solutions were made up in 100% DMSO, and final concentration of DMSO used in the assays was 1%. Minimum biofilm inhibitory concentration (MBIC) of compounds was determined by serial dilutions.

S. mutans Gtfs = assay: Gtf zymographic assay with SDS-PAGE; type: biochemical, Streptococcus mutans; conditions: for % Inhibition of GTFs at 10 μM: S. mutans GTF zymogram assay, NI = no inhibition up to 10 μM
Description: A well-established zymographic assay was used to determine enzymatic activity of Gtfs (Mattos-Graner et al. (2004) J. Clin. Microbiol. 42, […]). In brief, overnight S. mutans UA159 cultures were diluted 1:100 in fresh 5 mL THB with 50 μL of selective compounds at a series of concentrations. Treated bacteria were grown to OD470 of 1.0, and spun down by centrifugation at 4° C., and culture supernatants were collected and filtered through a 0.22-μm-pore-size filter membrane to remove residual bacterial cells and dialyzed at 4° C. against 0.02 M sodium phosphate buffer (pH 6.8), with 10 μM phenylmethylsulfonyl fluoride (PMSF), followed by a second dialysis against 0.2 mM sodium phosphate containing 10 μM PMSF. After dialysis, 4 mL of samples were concentrated to 40 μL by 100K Amicon Ultra-4 centrifugal filter (Merck Millipore Ltd.). For electrophoresis and zymographic analysis, 10 μL of each concentrated culture supernatant was applied to 8% SDS-PAGE in duplicate. One gel was used for protein staining with Coomassie blue dye, while the other one was subjected to zymographic assay as described (Mattos-Graner et al. (2004) J. Clin. Microbiol. 42, […]). The resultant white opaque glucan bands were visualized against a black background.
Inhibition of the activity of Gtfs determined by zymographic assays. Well established zymographic assay was used to determine enzymatic activity of Gtfs. In brief, overnight S. mutans UA159 cultures were diluted 1:100 in fresh 5 mL THB. Bacteria were grown to OD470 of 1.0, and spun down by centrifugation at 4° C. and culture supernatants were collected and filtered through a 0.22-μm-pore-size filter membrane to remove residual bacterial cells and dialyzed at 4° C. against 0.02 M sodium phosphate buffer (pH 6.8), with 10 μM phenylmethylsulfonyl fluoride (PMSF), followed by a second dialysis against 0.2 mM sodium phosphate containing 10 μM PMSF. After dialysis, 4 mL of samples were concentrated to 40 μL by 100K Amicon Ultra-4 centrifugal filter (Merk Millipore Ltd.). For electrophoresis and zymographic analysis, 10 μL of each concentrated culture supernatant was applied to 8% SDS-PAGE in duplicate. One gel was used for protein staining with Coomassie blue dye, while the other one was subjected to zymographic assay. For zymogram analysis, following electrophoretic separation, gels were washed twice for 15 min each with renaturing buffer containing 2.5% Triton X-100. Gels were then incubated for 18 h at 37° C. with 0.2 M sodium phosphate buffer (pH 6.5) containing 0.2% dextran T70, 5% sucrose, and varying concentrations of the small molecule inhibitors. The reactions were stopped by washing gels with distilled water at 4° C. for 10 min, and digital images of the resultant white opaque glucan bands were visualized against a black background and captured using a digital camera.
Inhibition of the activity of Gtfs determined by zymographic assays. A well-established zymographic assay was used to determine enzymatic activity of Gtfs (Mattos-Graner, R. O., Napimoga, M. H., Fukushima, K., Duncan, M. J., Smith, D. J., J Clin Microbiol, 2004, 42, 4586). In brief, overnight S. mutans UA159 cultures were diluted 1:100 in fresh 5 mL THB with 50 μL of selective compounds at a series of concentrations. Treated bacteria were grown to OD470 of 1.0, and spun down by centrifugation at 4° C., and culture supernatants were collected and filtered through a 0.22-μm-pore-size filter membrane to remove residual bacterial cells and dialyzed at 4° C. against 0.02 M sodium phosphate buffer (pH 6.8), with 10 μM phenylmethylsulfonyl fluoride (PMSF), followed by a second dialysis against 0.2 mM sodium phosphate containing 10 μM PMSF. After dialysis, 4 mL of samples were concentrated to 40 μL by 100K Amicon Ultra-4 centrifugal filter (Merk Millipore Ltd.). For electrophoresis and zymographic analysis, 10 μL of each concentrated culture supernatant was applied to 8% SDS-PAGE in duplicate. […]

[1] = Streptococcus mutans, Table 2, >300 = no inhibition up to 300 μM, read-out: Growth Inhibition MIC50
[2] = Streptococcus mutans, Table 1, >500 = no inhibition up to 500 μM, read-out: Biofilm Inhibition IC50
[3] = Streptococcus mutans, Table 2, read-out: Biofilm Inhibition IC50
[4] = Streptococcus mutans, Table 5, >500 = no inhibition up to 500 μM, read-out: Biofilm Inhibition IC50
[5] = Streptococcus mutans, Table 7, synthesized analogs of compound 9, read-out: Growth IC50
[6] = Streptococcus mutans, Table 7, synthesized analogs of compound 9, read-out: Biofilm IC50
[7] = Table 6, chalcones, NI = no inhibition
[8] = Streptococcus mutans, Table 3, >300 = no inhibition up to 300 μM, NI = no inhibition up to 400 μM, read-out: Growth Inhibition MIC50
[9] = Streptococcus mutans, Table 3, read-out: Biofilm Inhibition IC50

Structure (SMILES): NC(=O)c1ccccc1NC(=O)c1cnc2ccccc2c1 [Compound 3I]
MIC50 (S. mutans; [1]): > 300 µM | IC50 (S. mutans biofilm; [2]): 15.3 µM | IC50 (S. mutans biofilm; [3]): 15.3 µM | IC50 (S. mutans biofilm; [4]): 15.3 µM | % Inhibition of GTFs at 10 μM (S. mutans Gtfs): 36.6%

Structure (SMILES): NC(=O)c1ccccc1NC(=O)c1cc2cc(N)ccc2s1 [Compound 3M]
Growth Inhibition MIC50 (S. mutans; Table 2, >300 = no inhibition up to 300 μM): >300^b μM | IC50 (S. mutans biofilm; [2]): 10.2 µM | IC50 (S. mutans biofilm; [4]): 10.2 µM | % Inhibition of GTFs at 10 μM (S. mutans Gtfs): 42.2%

Structure (SMILES): O=C(/C=C/c1cc(O)c(O)cc1O)c1ccc(O)cc1 [Compound 18d, (E)-1-(4-hydroxyphenyl)-3-(2,4,5-trihydroxyphenyl)prop-2-en-1-one]
IC50 (S. mutans; [5]): 376 ± 6 µM | SI (selectivity index) (S. mutans): 4.9 | IC50 (S. mutans biofilm; [6]): 76 µM | Gtf enzyme inhibitory activity, glucan bands in zymogram (S. mutans Gtfs; 50 μM added to cultures): some weak inhibition of the GtfC band

Structure (SMILES): O=C(/C=C/c1cc(O)c(O)cc1O)c1ccccc1O [Compound 18c, (E/Z)-1-(2-hydroxyphenyl)-3-(2,4,5-trihydroxyphenyl)prop-2-en-1-one]
selectivity (index / fold) for biofilm over growth (S. mutans): 1.5 | IC50 (S. mutans; [5]): 323 ± 36 µM | SI (selectivity index) (S. mutans): 1.5 | IC50 (S. mutans biofilm; [6]): 224 ± 23 µM | production of Gtfs, protein level on SDS-PAGE (S. mutans Gtfs; 50 μM added to cultures): largest inhibition

Structure (SMILES): C(=C\c1ccccc1)/c1ccccc1 [E-stilbene, reference compound]
glucan production in zymogram assay (S. mutans Gtfs; stilbenes, versus DMSO control): no glucan inhibition

Structure (SMILES): Oc1cc(O)cc(/C=C/c2ccc(O)c(O)c2)c1 [Compound 8]
Growth inhibition 200 μM (%) (S. mutans; [7]): 82 ± 2% | Biofilm inhibition 200 μM (%) (S. mutans biofilm; [7]): 81 ± 2% | IC50 (S. mutans biofilm; read-out: S. mutans biofilm IC50): 52 µM

Structure (SMILES): O=C(/C=C/c1cccc(O)c1)c1ccccc1O [Compound 2]
Growth inhibition 200 μM (%) (S. mutans; [7]): 86 ± 0.5% | IC50 (S. mutans; Table 6, chalcones, NI = no inhibition, read-out: S. mutans Growth IC50): 32 ± 0.3 µM | Biofilm inhibition 200 μM (%) (S. mutans biofilm; [7]): 84 ± 3% | IC50 (S. mutans biofilm; Table 6, chalcones, read-out: S. mutans Biofilm IC50): 64 ± 4 µM

MIC50 (S. mutans; [8]): 157 ± 13 µM (≈ 42.3 µg/mL) | IC50 (S. mutans biofilm; [9]): 10.2 ± 2 µM
Structure (SMILES): O=C1/C(=C/c2cc(O)c(O)cc2O)Oc2ccccc21 [SN-II-110]

MIC50 (S. mutans; [1]): > 300 µM | IC50 (S. mutans biofilm; [2]): 43.4 µM | IC50 (S. mutans biofilm; [3]): 43.4 µM
Structure (SMILES): CC(C)(C)OC(=O)NCc1ccccc1NC(=O)c1cc2ccccc2s1 [AI]

MIC50 (S. mutans; [1]): > 300 µM | IC50 (S. mutans biofilm; [3]): 212 µM
Structure (SMILES): [N-]=[N+]=Nc1ccc(C(=O)Nc2ccccc2C(N)=O)cc1 [SN-I-288]

MIC50 (S. mutans; [1]): > 300 µM | IC50 (S. mutans biofilm; [3]): 102 µM
Structure (SMILES): NC(=O)c1ccccc1C(=O)Nc1cnc2ccccc2c1 [SN-I-285]

MIC50 (S. mutans; [8]): > 300 µM | IC50 (S. mutans biofilm; [9]): 320 ± 21 µM
Structure (SMILES): O=C1/C(=C/c2ccccc2)Oc2ccccc21 [LC-I-206]

MIC50 (S. mutans; Streptococcus mutans, Table 4, stilbenes, average of at least 5 measurements, NI = no inhibition, read-out: Growth MIC50): 1720 ± 53 µM (≈ 611 µg/mL) | Growth MIC50 (S. mutans; Table 8, stilbenes, average of at least 5 measurements, NI = no inhibition): 1724 ± 53 µM | IC50 (S. mutans biofilm; Streptococcus mutans, Table 4, stilbenes, NI = no inhibition, read-out: Biofilm IC50): 518 ± 85 µM | IC50 (S. mutans biofilm; Streptococcus mutans, Table 8, stilbenes, NI = no inhibition, read-out: Biofilm IC50): 518 ± 85 µM
Structure (SMILES): O=C(/C=C/c1ccc(O)c(O)c1)O[C@@H]1C[C@](O)(C(=O)O)C[C@@H](O)[C@H]1O [Entry 10]
Selectivity (S. mutans; Table 4, stilbenes): 3.3 | Selectivity (S. mutans; Table 8, stilbenes): 3.3
